{"source": "ChEMBL document CHEMBL5154693", "about": "“N-Methylpropargylamine-Conjugated Hydroxamic Acids as Dual Inhibitors of Monoamine Oxidase A and Histone Deacetylase for Glioma Treatment” (J Med Chem, 2022)", "key": {"[1]": {"tested_on": "GL26", "experiment": "Inhibition of HDAC in mouse GL26 cells assessed as increase in histone H3 acetylation at 0.62 to 1.25 uM incubated for 48 hrs by Western blot analysis", "assay_type": "cell-based", "settings": "dose 0.62-1.25 µM, DDE = dose-dependent effect"}, "[2]": {"tested_on": "U-251", "experiment": "cells", "assay_type": "functional, cell-based", "settings": "Homo sapiens, U-251, 48 h", "description": "Cytotoxicity against human TMZ-sensitive U251 cells assessed as inhibition of cell growth incubated for 48 hrs by MTT assay"}, "[3]": {"tested_on": "GL26", "experiment": "Induction of apoptosis in mouse GL26 cells assessed as proteolytic cleavage of PARP1 incubated for 48 hrs by Western blot analysis", "assay_type": "functional, cell-based", "settings": "dose 1.25-5 µM, DDE = dose-dependent effect"}, "[4]": {"tested_on": "GL26", "experiment": "Inhibition of HDAC in mouse GL26 cells assessed as increase in alpha tubulin level at 0.62 to 1.25 uM incubated for 48 hrs by Western blot analysis", "assay_type": "cell-based", "settings": "dose 0.62-1.25 µM, DDE = dose-dependent effect"}, "[5]": {"tested_on": "GL26", "experiment": "Antitumor activity against mouse GL26 cells implanted in C57BL6 mouse assessed as reduction in tumor size at 50 mg/kg, ip daily measured for 10 days by bioluminescence assay", "assay_type": "functional, organism-based", "settings": "time 10.0 day"}, "[6]": {"tested_on": "Mus musculus", "experiment": "In vivo inhibition of MAO-A in mouse xenografted with mouse GL26 assessed as decrease in MAO activity in tumor at 25 mg/kg, ip administered for 10 days by bioluminescence assay", "assay_type": "functional, organism-based", "settings": "time 10.0 day"}, "[7]": {"experiment": "Toxicity in mouse bearing intracranial tumor assessed as assessed as median survival time at 25 mg/kg, ip treatment started at 7 dpi (Rvb=18.25 days)", "assay_type": "organism-based", "settings": "in vivo, 438 h"}, "[8]": {"experiment": "Toxicity in mouse bearing intracranial tumor assessed as median survival time at 50 mg/kg, ip for 10 days (Rvb= 13.8 days)", "assay_type": "organism-based", "settings": "in vivo, 240 h, time 10 day"}, "[9]": {"tested_on": "U-251", "experiment": "cells", "assay_type": "functional, cell-based", "settings": "Homo sapiens, U-251, 48 h", "remark": "listed apart in the source", "description": "Cytotoxicity against human TMZ-resistant U251 cells assessed as inhibition of cell growth incubated for 48 hrs by MTT assay"}, "[10]": {"tested_on": "Mus musculus", "experiment": "In vivo inhibition of MAO-A in mouse xenografted with mouse GL26 assessed as decrease in MAO activity in tumor at 50 mg/kg by radiometric analysis", "assay_type": "functional"}, "[11]": {"experiment": "Toxicity in mouse bearing intracranial tumor assessed as assessed as median survival time at 50 mg/kg, ip for 14 days treatment started at 5 days post-infection (Rvb=12.8 days)", "assay_type": "organism-based", "settings": "in vivo, 336 h, time 14 day"}, "[12]": {"experiment": "Toxicity in mouse bearing intracranial tumor assessed as last day of survival at 25 mg/kg,ip for 10 days (Rvb=16 days)", "assay_type": "organism-based", "settings": "in vivo, 240 h, time 10 day"}, "[13]": {"experiment": "Toxicity in mouse bearing intracranial tumor assessed as median survival time at 25 mg/kg, ip for 10 days (Rvb= 13.8 days)", "assay_type": "organism-based", "settings": "in vivo, 240 h, time 10 day"}, "[14]": {"target": "Lysine-specific histone demethylase 1A (Homo sapiens, UniProt O60341)", "experiment": "Inhibition of human LSD1 assessed as demethylase activity of LSD1 using Histone H3(1-21)K4me2 peptide as substrate incubated for 30 mins followed by substrate addition by amplex red dye based HRP-coupled assay"}}, "note": "Active and inactive are the calls of the source. No cut-off for these calls is given here."}
{"smiles": "C#CCN(C)CCCOc1ccc(NC(=O)CCCCCCC(=O)NO)cc1Cl", "values": [{"measurement": "Activity", "setting": "[1]", "value": "Dde"}, {"measurement": "IC50", "setting": "[2]", "value": 2.83, "unit": "µM"}, {"measurement": "Activity", "setting": "[3]", "value": "Dde"}, {"measurement": "Activity", "setting": "[4]", "value": "Dde"}, {"measurement": "Activity", "setting": "[5]", "value": "Active"}, {"measurement": "Activity", "setting": "[6]", "value": "Active"}, {"measurement": "MST", "setting": "[7]", "value": 17.25, "unit": "days"}, {"measurement": "Survival", "setting": "[8]", "value": 14.4, "unit": "days"}, {"measurement": "IC50", "setting": "[9]", "value": 2.73, "unit": "µM"}, {"measurement": "Activity", "setting": "[10]", "value": "Active"}, {"measurement": "MST", "setting": "[11]", "value": 14.25, "unit": "days"}]}
{"smiles": "C#CCN(C)CCCOc1cc(NCc2ccc(/C=C/C(=O)NO)cc2)ccc1Cl", "values": [{"measurement": "Survival", "setting": "[12]", "value": 21, "unit": "days"}, {"measurement": "IC50", "setting": "[2]", "value": 3.24, "unit": "µM"}, {"measurement": "Activity", "setting": "[5]", "value": "Active"}, {"measurement": "Activity", "setting": "[6]", "value": "Active"}, {"measurement": "MST", "setting": "[7]", "value": 19.5, "unit": "days"}, {"measurement": "Survival", "setting": "[13]", "value": 16.4, "unit": "days"}, {"measurement": "IC50", "setting": "[9]", "value": 0.99, "unit": "µM"}, {"measurement": "Activity", "setting": "[10]", "value": "Active"}, {"measurement": "MST", "setting": "[11]", "value": 12.75, "unit": "days"}, {"measurement": "EC50", "setting": "[14]", "value": 10, "unit": "µM"}]}
